This experiment has as its system cutis and subcutis. Briefly: In vivo clinical studies II, Q-BASE-CREAM, regeneration and repairing of cutis and subcutis. Set-up: species or system human. As to conditions: Case 2, surgical suture dehiscence; before Q-BASE-CREAM.

Experimental: A clinical study was performed, which was designed to assess the therapeutic effectiveness of the product designated as Q-BASE-CREAM in the regeneration and repairing of cutis and subcutis.
During the period comprised from March to May 2007, a mixed group of volunteers consisting of human (two women and one person) and veterinary (two dogs) patients were included in the clinical study.

With povidone-iodine, the “change of the lesion after 7 days of previous local therapy” value is given as “no changes in the lesion occurred”.

(Values after patent publication US20100310544A1, “COMPOSITION COMPRISING CALCIUM IONS AND AT LEAST ONE PROTEOLYTIC ENZYME FOR USE IN THE IN VITRO AND IN VIVO REGENERATION OF CUTANEOUS AND CONNECTIVE TISSUES” (MEDEVICE S.P.A., priority 2007, published 2010).)
